Test results published in patent US20240041898A9, “NEUROSTEROIDS AND ENANTIOMERS THEREOF FOR THE PREVENTION AND TREATMENT OF NEURODEGENERATIVE CONDITIONS” (priority 2019, published 2024).
Like-named read-outs stand apart in the source and are kept apart here.

What was measured:
LC3-II = assay: Ex vivo pressure-loaded retinas, Western blot of LC3-II; type: cell-based, rat; conditions: 10 mM 3-MA, 1 μM ent-AlloP, 75 mmHg
Protocol: (§1) Rat ex vivo Eyecup Preparation—Rat ex vivo eyecups were prepared from 28-32 day old male Sprague-Dawley rats (Charles River Laboratories International Inc., Wilmington, MA). The anterior half of the enucleated eyes was carefully removed to make eyecup preparations. Eyecups were placed at the bottom of a 100 ml glass beaker filled with aCSF (artificial cerebrospinal fluid) containing (in mM): 124 NaCl, 5 KCl, 2 MgSO4, 2 CaCl2, 1.25 NaH2PO4, 22 NaHCO3, and 10 glucose, and incubated at 30° C. for 24 hours using a closed pressure-loading system (FIG. 1C). pH was maintained at 7.35 to 7.40. In the closed-pressure system, a glass beaker with the eyecup was placed at the bottom of an acrylic pressure chamber (2,000 ml volume). A 95% O2-5% CO2 gas mixture was delivered through disposable plastic tubing with an infusion valve and a control dial on the lid of the pressure chamber and an air filter (Cat #SLGP033RS, Merck Millipore, Billerica, MA). The plastic tubing delivering the gas terminated 1 cm above the bottom of the beaker.
(§2) Acutely prepared eyecups were incubated in gassed aCSF for at least 1 h at 30° C. before pressure loading. In some experiments, AlloP (1 μM), ent-AlloP (1 μM), and 3-MA (10 mM) were dissolved in aCSF at the time of experiment and administered by bath perfusion. Eyecup preparations were treated with these drugs for 1 h at 30° C. before pressure loading. For pressure loading, the 95% O2-5% CO2 gas mixture was infused until the pressure reading given by a manometer reached the appropriate level. The pressure was then locked by adjusting the control dial of the effusion valve, and monitored continuously for 24 h at 30° C.
(§3) Western Blot Analysis—At the end of each experiment, the posterior segments of the eye were placed on a flat cutting surface and immersed in ice-cold aCSF. With a surgical blade, the retina was carefully and gently detached from the sclera with a fine forceps. The isolated retinas were frozen at −80° C. Retinas were then homogenized in lysis buffer solution (CelLytic MT; Sigma-Aldrich, Inc.) with protease inhibitor cocktail (Sigma-Aldrich, Inc.), prepared according to the manufacturer's instructions. The tissue extracts were ultrasonicated and clarified by centrifugation at 12,000 g for 20 minutes at 4° C. The protein concentrations in supernatants were assayed (Quant-iT assay kit; Invitrogen Corp., Carlsbad, CA). Twenty micrograms of retinal extract were subjected to SDS polyacrylamide gel electrophoretic analysis. The proteins were then transferred to a PVDF. Immunoblots by polyclonal rabbit anti-LC3B antibody (MBL Life Science) or anti-SQSTMl/p62 mouse monoclonal antibody (Abcam) were visualized using WesternBreeze Chemiluminescent Immunodetection system (Invitrogen) with the exposure time to autoradiograph film (MXJB Plus; Kodak, Rochester, NY) adjusted to avoid over- or undersaturation. Precision Plus Protein™ Western Standards (Bio-Rad, Hercules, CA) followed by Precision Protein™ strep Tactin-AP conjugate (Bio-Rad) was used for a molecular marker of LC3. MagicMark™ XP Western Protein Standard (Invitrogen, Carlsbad, CA) was used for a molecular marker of p62. Immunoblot data are normalized to β-actin levels in the same sample.
The density of Western blot bands was quantified using Image-Pro Plus software. Quantification was adjusted to protein expression at 10 mmHg after normalization to the β-actin band at each pressure, and the relative gray-scale value was calculated by densitometric analysis of the obtained bands. At least four independent experiments were performed for each condition, and the results are presented as relative units numerically. Differences in expression levels were evaluated using Wilcoxon Rank-Sum Test, Tukey's or Dunnett's multiple comparison test. Sample numbers were four to five per each experimental condition.

p62 = assay: Ex vivo pressure-loaded retinas, Western blot of p62; type: cell-based, rat; conditions: 10 mM 3-MA, 1 μM ent-AlloP, 75 mmHg
Protocol: as §1, §2
as §3, with “MagicMark™ XP Western Protein Standard (Invitrogen, Carlsbad, CA) was used for a molecular marker of p62. Immunoblot data are normalized to β-actin levels in the same sample.” left out
The density of Western blot bands was quantified using Image-Pro Plus software. Quantification was adjusted to protein expression at 10 mmHg after normalization to the β-actin band at each pressure, and the relative gray-scale value was calculated by densitometric analysis of the obtained bands. […] Differences in expression levels were evaluated using Wilcoxon Rank-Sum Test, Tukey's or Dunnett's multiple comparison test. […]

[1] = tested on: pressure-loaded ex vivo rat retinas; type: cell-based; conditions: for retinal morphology with 3-MA alone: 10 mM
Protocol: as §1, §2
Data analysis of morphometry—The middle portion of the retina was examined, greater than 1,200 μm away from the center of the optic disc along the inner limiting membrane (ILM). The nerve fiber layer thickness (NFLT) was measured by light microscopy along 5 lines perpendicular to the pigment epithelium at a distance of 15 μm from each other around 1,200 μm away from the center of the optic disc. The average NFLT was determined in 9 different light micrographs taken from 5 eyecup samples in each condition, divided by total retinal thickness, and mean±standard deviation (%) was analyzed and compared with control.
The density of degenerated cells characterized by nuclear chromatin clumping or necrosis in the GCL was determined by counting 9 fields of 500 μm length in light micrographs taken from the block of the middle retinal part 950 to 1450 μm away from the center of the optic disc.
The severity of neuronal damage was assessed by light microscopy using a neuronal damage score (NDS). The NDS was determined in 9 different light micrographs taken from 5 eyecup samples in each condition. The NDS rates neuronal damage in the inner nuclear layer (INL) and the inner plexiform layer (IPL) on a 0-4 scale with 0 signifying no neuronal damage and 4 indicating very severe damage. Criteria used in establishing the degree of neuronal damage included the extent of cytoplasmic swelling in the IPL and the number of neurons in the INL showing signs of severe cytoplasmic swelling and coarse clumping of nuclear chromatin. The highest NDS rating (4) is given when the IPL discloses apparent spongiform appearance due to dendritic swelling and when most cell bodies in the INL show severe cytoplasmic swelling and coarse clumping of nuclear chromatin. If the damage is of a lesser degree, a rating of 3 is given. NDS 2 is assigned when cell bodies in the INL are sporadically swollen. […] Fine dendritic swelling in a limited area of the IPL without damage in the INL is described by NDS 1.
NFLT, density of degenerated cells in the GCL, and NDS were determined as the measurement of 10 different areas from three eyes per experimental condition. These morphometrical parameters were assessed by three raters, who remained unaware of the experimental condition. […]

Compound	effect of 3-MA on upregulation of LC3-II levels induced by ent-AlloP (LC3-II)	effect of 3-MA on the decrease of p62 levels induced by ent-AlloP (p62)	effect of 3-MA on neuroprotection by AlloP ([1]; 10 mM 3-MA + 1 μM AlloP, 75 mmHg)	effect of 3-MA on the effects of ent-AlloP ([1]; 10 mM 3-MA + 1 μM ent-AlloP, 75 mmHg)	retinal morphology with 3-MA alone ([1]; 10 mmHg)	retinal morphology with 3-MA alone ([1]; 75 mmHg)	effect of picrotoxin on the neuroprotective effect of AlloP ([1]; 1 μM picrotoxin + 1 μM AlloP, hyperbaric conditions (75 mmHg))	effect of picrotoxin on the effects of ent-AlloP ([1]; 1 μM picrotoxin + 1 μM ent-AlloP, 75 mmHg)
Cn1cnc(N)c2ncnc1-2 [3-MA, 3-methyladenine]	dampened	reversed	did not alter neuroprotection by AlloP	dampened the effects of ent-AlloP	neurodegenerative	neurodegenerative		
picrotoxin							overcame the neuroprotective effect of AlloP	did not alter the effects of ent-AlloP
